Experimental data taken from patent US20210238225A1, “PEPTIDOMIMETIC INHIBITORS OF THE PEPTIDYL-PROLYL CIS/TRANS ISOMERASE (PIN1)” (DANA-FARBER CANCER INSTITUTE, INC., priority 2018, published 2021).
Entries after “also recorded” stand apart in the source; their conditions may differ. Like-named read-outs stand apart in the source and are kept apart here. Non-standard residues stand in square brackets, D forms with d. Residues, ends and D or L forms follow the SMILES beside them. *: point of attachment. Biotinyl(3aR,4R,6aS) = O=C1N[C@@H]2[C@@H](CS[C@@H]2CCCCC(=O)*)N1; Ala(4-thiazolyl) = N[C@@H](Cc1cscn1)C(=O)O; Phe(4-F) = N[C@@H](Cc1ccc(F)cc1)C(=O)O; X2 = C[C@H]1NC(=O)N[C@H]1CCCCCC(=O)*; NH(4-Me-benzyl) = Cc1ccc(CN*)cc1; NMeF = CN[C@@H](Cc1ccccc1)C(=O)O; Cit = NC(=O)NCCC[C@H](N)C(=O)O; Pip = O=C(O)[C@@H]1CCCCN1; ClAc = O=C(CCl)*; NHcPr = C1CC1N*

What was measured:
[1] = biological target: Pin1 (GST-Pin1) (Homo sapiens, UniProt Q13526); test: Fluorescence polarization (FP) assay, binding to Pin1
Pin1 (GST-Pin1), sequence (Q13526 whole entry): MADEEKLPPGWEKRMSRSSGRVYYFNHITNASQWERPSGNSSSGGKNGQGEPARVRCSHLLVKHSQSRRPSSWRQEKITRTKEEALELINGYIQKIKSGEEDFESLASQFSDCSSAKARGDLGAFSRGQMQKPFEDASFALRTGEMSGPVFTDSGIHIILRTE

[2] = biological target: T1, Pin1 (Homo sapiens, UniProt Q13526); test: Cellular target engagement, live cell biotin competition assay in TNBC MDA-MB-231 cells; format: cell-based; parameters: endogenous in cells; host or cells: MDA-MB-231; conditions: TNBC MDA-MB-231 cells; for Cellular Target Engagement?: 5 hours treatment, concentration under E7
T1 sequence (Q13526 whole entry): as above
Protocol: TNBC MDA-MB-231 cells were plated in 10 cm plates with 2.5 million cells per plate in 6 mL of media. The day after plating, cells were treated with the indicated concentrations of compound 18 for 5 hours. The cells were washed 2× with 0.9% NaCl (1 mL per 10 cm plate), and collected by scraping with a cell scraper. Cells were lysed in lysis buffer (50 mM Hepes pH 7.5, 150 mM NaCl, 1 mM EDTA, 10% v/v glycerol, 0.5% v/v […], protease inhibitors (Roche)) using 210 μL of cell lysis buffer per 10 cm plate of cells. After clarifying by centrifugation (14,000 rpm for 15 min at 4° C.), 5 μL of each lysate sample was combined with 5 μL of 2× LDS+10% β-mercaptoethanol, boiled for 5 minutes, and set aside for the input loading control (later to be loaded directly in the gel). Then, 200 μL of each lysate was then incubated with 1 μM of compound 2-32 (biotin probe compound) for 1 hour at 4° C. Lysates were then incubated with streptavidin agarose resin (30 μL of 1:1 beads: lysis buffer slurry) (Thermo Scientific™, cat. #20349) for 2 hours at 4° C. Beads were washed 4 times with 500 μL of washing buffer (50 mM Hepes, pH7.5, 10 mM NaCl, 1 mM EDTA, 10% glycerol), then pelleted by centrifugation and dried. The beads were then boiled at 95° C. for 5 minutes in 30 μL of 2× LDS+10% β-mercaptoethanol. Lysates were probed for specified proteins by western blotting using the Bolt system (Life Technologies™).

[3] = biological target: T1, Pin1; test: Lysate target engagement (pull down with biotinylated probes; competition assay); format: binding; parameters: endogenous in cells; host or cells: MDA-MB-231; conditions: for pull down of Pin1 from lysate (FIG. 5A): 1 μM; for Lysate Target Engagement?: TNBC-MDA-MB-231 lysate, biotin/dtb probes: pull down, others: competition, concentration under E5; for Lysate Target Engagement? concentration stated for the engagement or pull down: read with the E4 line of the same compound (complete, partial, probe pull down)
Protocol: (§1) TNBC-MDA-MB-231 cells were lysed in lysis buffer (50 mM Hepes pH 7.5, 150 mM NaCl, 1 mM ethylenediaminetetraacetic acid (EDTA), 10% v/v glycerol, 0.5% v/v NP-40, protease inhibitors (Roche)). After clarifying by centrifugation (14,000 rpm for 15 min at 4° C.), lysates were incubated with the indicated concentrations of candidate compound for 1 hour at 4° C. (500 μg of protein per sample, as determined by BCA). Lysates were then incubated with streptavidin agarose resin (30 μL of 1:1 beads: lysis buffer slurry) (Thermo Scientific™, cat. #20349) for 2 hours at 4° C. Beads were washed 4 times with 500 μL of washing buffer (50 mM Hepes, pH 7.5, 10 mM NaCl, 1 mM EDTA, 10% glycerol), then pelleted by centrifugation and dried. The beads were then boiled at 95° C. for 5 minutes in 30 μL of 2× LDS+10% β-mercaptoethanol. Lysates were probed for specified proteins by western blotting using the Bolt system (Life Technologies™).
as §1, with “mM EDTA,” for “mM ethylenediaminetetraacetic acid (EDTA),”, “by centrifugation,” for “by centrifugation (14,000 rpm for 15 min at 4° C.),”, “were pre-incubated” for “were incubated”, “of” for “of candidate”, “compound 18 overnight” for “compound for 1 hour”, “BCA). The lysates were then incubated with 1 μM of compound 2c (desthiobiotin probe) for 1 hour at 4° C.” for “BCA).”

[4] = Ki, μM (FP Assay), competition with fluorescein-labeled peptide probe, 12 hours pre-incubation at 4° C., Kenakin Ki equation
[5] = competition with fluorescein-labeled peptide probe, 12 hours pre-incubation at 4° C., Kenakin Ki equation, read-out: Ki, μM (FP Assay)
[6] = Ki quoted in figure legend, assay not named

| Compound | Ki [1, 4] | Cellular Target Engagement? [2] | Ki [1, 5] | Lysate Target Engagement? [3] | Lysate Target Engagement? concentration stated for the engagement or pull down [3] | also measured |
| --- | --- | --- | --- | --- | --- | --- |
| COC(=O)CC[C@H](NC(=O)CCl)C(=O)N1CCCC[C@H]1C(=O)N[C@@H](Cc1c[nH]c2ccccc12)C(=O)N[C@@H](CCCNC(N)=O)C(=O)NCc1ccc(C)cc1 [Compound 11-4, Methyl (S)-5-((S)-2-(((S)-3-(1H-indol-3-yl)-1-(((S)-1-((4-methylbenzyl)amino)-1-oxo-5-ureidopentan-2-yl)amino)-1-oxopropan-2-yl)carbamoyl)piperidin-1-yl)-4-(2-chloroacetamido)-5-oxopentanoate] (ClAc-E(OMe)[Pip]W[Cit]-{NH(4-Me-benzyl)}) | 0.03 µM | No | – | – | – | – |
| NC(=O)NCCC[C@H](NC(=O)[C@H](Cc1c[nH]c2ccccc12)NC(=O)[C@@H]1CCCCN1C(=O)[C@H](Cc1ccccc1)NC(=O)CCl)C(=O)NC1CC1 [Compound 11-38, (S)-1-((2-chloroacetyl)-L-phenylalanyl)-N—((S)-1-(((S)-1-(cyclopropylamino)-1-oxo-5-ureidopentan-2-yl)amino)-3-(1H-indol-3-yl)-1-oxopropan-2-yl)piperidine-2-carboxamide] (ClAc-F[Pip]W[Cit]-NHcPr) | – | No | 0.018 µM | – | – | – |
| COC(=O)CC[C@H](NC(=O)CCl)C(=O)N1CCCC[C@H]1C(=O)N[C@@H](Cc1c[nH]c2ccccc12)C(=O)N[C@@H](Cc1cscn1)C(=O)NCc1ccc(C)cc1 [Compound 11-28, Methyl (S)-5-((S)-2-(((S)-3-(1H-indol-3-yl)-1-(((S)-1-((4-methylbenzyl)amino)-1-oxo-3-(thiazol-4-yl)propan-2-yl)amino)-1-oxopropan-2-yl)carbamoyl)piperidin-1-yl)-4-(2-chloroacetamido)-5-oxopentanoate] (ClAc-E(OMe)[Pip]W[Ala(4-thiazolyl)]-{NH(4-Me-benzyl)}) | 0.099 µM | No | – | – | – | – |
| C[C@H](NC(=O)[C@H](C)NC(=O)[C@H](CCCNC(N)=O)NC(=O)[C@H](Cc1c[nH]c2ccccc12)NC(=O)[C@@H]1CCCCN1C(=O)[C@H](CCC(=O)O)NC(=O)CCl)C(=O)N[C@@H](CCCCNC(=O)CCCC[C@H]1SC[C@H]2NC(=O)N[C@H]21)C(N)=O [Compound 2-25, (S)-5-((S)-2-(((2S,5S,8S,11S)-14-Carbamoyl-1-(1H-indol-3-yl)-8,11-dimethyl-3,6,9,12,20-pentaoxo-24-((3aR,4R,6aS)-2-oxohexahydro-1H-thieno[3,4-d]imidazol-4-yl)-5-(3-ureidopropyl)-4,7,10,13,19-pentaazatetracosan-2-yl)carbamoyl)piperidin-1-yl)-4-(2-chloroacetamido)-5-oxopentanoic acid] (ClAc-E[Pip]W[Cit]AAK(Biotinyl(3aR,4R,6aS))-NH2) | – | – | – | Yes-(Biotin | at 1 μM | Ki ([1]; read-out: Ki quoted in figure legend, assay not named): 0.02 µM; pull down of Pin1 from lysate (FIG. 5A) ([3]; TNBC MDA-MB-231 lysate): able to pull down Pin1; also recorded: pulled down Pin1 |
| COC(=O)CC[C@H](NC(=O)CCl)C(=O)N1CCCC[C@H]1C(=O)N[C@@H](Cc1c[nH]c2ccccc12)C(=O)N[C@@H](Cc1ccc(F)cc1)C(=O)NCc1ccc(C)cc1 [Compound 11-3, Methyl (S)-4-(2-chloroacetamido)-5-((S)-2-(((S)-1-(((S)-3-(4-fluorophenyl)-1-((4-methylbenzyl)amino)-1-oxopropan-2-yl)amino)-3-(1H-indol-3-yl)-1-oxopropan-2-yl)carbamoyl)piperidin-1-yl)-5-oxopentanoate] (ClAc-E(OMe)[Pip]W[Phe(4-F)]-{NH(4-Me-benzyl)}) | 0.19 µM | Yes-Complete | – | – | – | Cellular Target Engagement? concentration stated for complete engagement ([2]; read with the E6 line): at 15 μM |
| C[C@H]1NC(=O)N[C@H]1CCCCCC(=O)NCCCC[C@H](NC(=O)[C@H](CCCNC(N)=O)NC(=O)[C@H](Cc1c[nH]c2ccccc12)NC(=O)[C@@H]1CCCCN1C(=O)[C@H](Cc1ccccc1)N(C)C(=O)CCl)C(N)=O [Compound 2c, (S)—N—((S)-1-(((S)-1-(((S)-1-Amino-6-(6-((4S,5R)-5-methyl-2-oxoimidazolidin-4-yl)hexanamido)-1-oxohexan-2-yl)amino)-1-oxo-5-ureidopentan-2-yl)amino)-3-(1H-indol-3-yl)-1-oxopropan-2-yl)-1-(N-(2-chloroacetyl)-N-methyl-L-phenylalanyl)-piperidine-2-carboxamide] (ClAc-[NMeF][Pip]W[Cit]K(X2)-NH2) | – | – | – | Yes-(dtb | at 0.5 μM | Ki [1, 6]: 0.015 µM |
| C[C@H](NC(=O)[C@H](C)NC(=O)[C@H](CCCNC(N)=O)NC(=O)[C@H](Cc1c[nH]c2ccccc12)NC(=O)[C@@H]1CCCCN1C(=O)[C@@H](CCC(=O)O)NC(=O)CCl)C(=O)N[C@@H](CCCCNC(=O)CCCC[C@H]1SC[C@H]2NC(=O)N[C@H]21)C(N)=O [Compound 2-30, (R)-5-((S)-2-(((2S,5S,8S,11S)-14-Carbamoyl-1-(1H-indol-3-yl)-8,11-dimethyl-3,6,9,12,20-pentaoxo-24-((3aR,4R,6aS)-2-oxohexahydro-1H-thieno[3,4-d]imidazol-4-yl)-5-(3-ureidopropyl)-4,7,10,13,19-pentaazatetracosan-2-yl)carbamoyl)piperidin-1-yl)-4-(2-chloroacetamido)-5-oxopentanoic acid] (ClAc-[dE][Pip]W[Cit]AAK(Biotinyl(3aR,4R,6aS))-NH2) | – | – | 1.6 µM | – | – | pull down of Pin1 from lysate (FIG. 5A) ([3]; TNBC MDA-MB-231 lysate): unable to pull down Pin1; also recorded: did not |
| COC(=O)CC[C@H](NC(=O)CCl)C(=O)N1CCCC[C@H]1C(=O)N[C@@H](Cc1c[nH]c2ccccc12)C(=O)N[C@@H](Cc1ccc(O)cc1)C(N)=O [Compound 2-22, Methyl (S)-5-((S)-2-(((S)-1-(((S)-1-Amino-3-(4-hydroxyphenyl)-1-oxopropan-2-yl)amino)-3-(1H-indol-3-yl)-1-oxopropan-2-yl)carbamoyl)piperidin-1-yl)-4-(2-chloroacetamido)-5-oxopentanoate] (ClAc-E(OMe)[Pip]WY-NH2) | – | – | 0.154 µM | Yes-partial | at 10 μM | – |
| CN(C(=O)CCl)[C@@H](Cc1ccccc1)C(=O)N1CCCC[C@H]1C(=O)N[C@@H](Cc1c[nH]c2ccccc12)C(=O)N[C@@H](CCCNC(N)=O)C(=O)N[C@@H](CCCCNC(=O)CCCC[C@H]1SC[C@H]2NC(=O)N[C@H]21)C(N)=O [Compound 2-32, (S)—N—((S)-1-(((S)-1-(((S)-1-Amino-1-oxo-6-(5-((3aR,4R,6aS)-2-oxohexahydro-1H-thieno[3,4-d]imidazol-4-yl)pentanamido)hexan-2-yl)amino)-1-oxo-5-ureidopentan-2-yl)amino)-3-(1H-indol-3-yl)-1-oxopropan-2-yl)-1-(N-(2-chloroacetyl)-N-methyl-L-phenylalanyl)piperidine-2-carboxamide] (ClAc-[NMeF][Pip]W[Cit]K(Biotinyl(3aR,4R,6aS))-NH2) | 0.018 µM | – | – | Yes-(Biotin | at 0.5 μM | Ki [1, 6]: 0.018 µM; pull down of Pin1 from lysate (FIG. 5B) ([3]; TNBC MDA-MB-231 lysate, 500 nM and 1 μM): able to pull down Pin1; also recorded: pulled down Pin1 |
